According to patent publication US11052245B2, “Device and method for localized delivery and extraction of material” (Helsingin Yliopisto, priority 2015, dated 2021):

Tests used:
[1] = In-vitro delivery of methylene blue into human nails by MHD, photograph; type: in vitro ADME; conditions: MB 0.01% in PBS 1%, MHD for 10 minutes, graphite electrodes ø=6 mm, 3 mm gap, 400 mA, control immersed 10 minutes without MHD
Description: Control: Fingernail was immersed in a solution of MB (0.01%) in PBS (1%) for 10 minutes.
Treatment; Fingernail was immersed in the MB solution and exposed to MHD during 10 minutes. The MHD method applied graphite cylindrical electrodes (ø=6 mm), 3 mm electrode gap, and 400 mA.
The darkest regions correspond to the largest concentration of MB.

[2] = Delivery of phosphotungstic acid into bovine articular cartilage by MHD, imaged with X-ray micro-tomography; type: in vitro ADME; conditions: PTA 1% in PBS; MHD for 40 s, graphite electrodes ø=6 mm, 3 mm gap, 400 mA; control immersed 40 s without MHD; XMT of 150 μm slices
Source text: Control: bovine articular cartilage was immersed in 1% PTA (˜2.8 kDa) in phosphate buffered saline (PBS) for 40 s.
Treatment: bovine articular cartilage was immersed in PTA 1% in PBS and exposed to MHD for 40 s. The MHD method applied graphite cylindrical electrodes (ø=6 mm), 3 mm electrode gap, and 400 mA.

Diffusion of MB into nail, treated sample vs control [1] | Structure (SMILES) | Diffusion of PTA into cartilage, treated sample vs control [2]
stronger than in the control | CN(C)c1ccc2nc3ccc(=[N+](C)C)cc-3sc2c1 [MB, methylene blue] | 
 | O=P(O)(O)O.[O]=[W](=[O])=[O].[O]=[W](=[O])=[O].[O]=[W](=[O])=[O].[O]=[W](=[O])=[O].[O]=[W](=[O])=[O].[O]=[W](=[O])=[O].[O]=[W](=[O])=[O].[O]=[W](=[O])=[O].[O]=[W](=[O])=[O].[O]=[W](=[O])=[O].[O]=[W](=[O])=[O].[O]=[W](=[O])=[O] [PTA, phosphotungstic acid] | enhanced diffusion of PTA as compared to the control
